Experimental data from patent US20220111028A1, “Combination Of A STING Agonist And A Complex Comprising A Cell Penetrating Peptide, A Cargo And A TLR Peptide Agonist” (priority 2020, published 2022).

Tests used:
TC-1 tumor [1] = experiment: TC-1 tumor model: tumor growth, survival and circulating CD8 T cells (STINGa 2); assay type: in vivo, C57BL/6 mice; settings: TC-1 model, complex day 6 and 13, STINGa 2 s.c. days 6, 10, 13 and 17
Procedure: (§1) C57BL/6 mice were implanted s.c. with 1×10^5 TC-1 tumor cells in the back and mice were stratified according to tumor size on day 6 tumor implantation. Alternatively, C57BL/6J mice were injected i.v. with 1×10^5 B16-OVA cells. Mice were vaccinated two times (at day 6 and 13 post tumor implantation) by s.c. injection of 10 nmoles of vaccine at the tail base. At the same time of vaccination, mice received 25 μg of STING agonist administered via 2×50 μl s.c. injections in each side of the low back. Alternatively, at the same time of vaccination, mice received 10 μg of STING agonist 2 administered via 2×100 μl s.c. injections in each side of the low back.
(§2) Tumor size was measured with a caliper and mice were euthanized when tumor reached a volume of 1000 mm^3. Tumor volume was calculated with the following formula:
(§3) V=length×length×width×Pi/6
Similarly as described above, 10^5 TC-1 cells were implanted on the back of C57BL/6 mice and assigned to distinct groups (control (no treatment); complex comprising a cell penetrating peptide, at least one antigen or antigenic epitope, and a TLR peptide agonist (Z13Mad25Anaxa); STING agonist STINGa 2; and a combination thereof). […]

IFN-α = experiment: Quantification of serum interferon-α (ELISA) in tumor-free mice; assay type: in vivo, C57BL/6 mice; settings: 4 and 24 hours post first vaccination, s.c.
Procedure: Blood was collected from mouse tail vein and serum was isolated by centrifugation using Starstedt tubes. The concentration of IFN-α cytokine was measured using commercial ELISA kits according to the manufacturer's recommendations (PBL Assay Science).
In order to evaluate the immunogenicity of the combination, tumor-free C57BL/6 mice were vaccinated twice at 2 weeks interval (at day 0 and 14) by s.c. injection of 10 nmoles of Z13Mad25Anaxa (an exemplified a complex comprising a cell penetrating peptide, at least one antigen or antigenic epitope, and a TLR peptide agonist, which contains human papilloma virus (HPV)-derived CD4 and CD8 epitopes. At about the same time of vaccination, mice received 25 μg of STING agonist ADU-S100 administered via 2×50 μl s.c. injections in each side of the low back. Serum was collected 4 and 24 hours after the first vaccination and IFN-α concentration was measured by ELISA. Whole blood was collected at day 21 and used for antigen-specific CD8 T cells measurement by multimer flow cytometry staining. At the same time, spleens were harvested and splenocytes used for ex vivo stimulation and intracellular cytokine production was analyzed by flow cytometry. Alternatively, splenocytes were used for TCR avidity assay.

[2] = tested on: HPV-E7-specific CD8 T cells, splenic CD8 and CD4 T cells; experiment: Immunogenicity in tumor-free mice: multimer staining and flow cytometry of blood and splenocytes; assay type: in vivo, C57BL/6 mice
Procedure: (§4) Peripheral blood and spleen mononuclear cell suspensions from mice were isolated using Ficoll-Paque gradient (GE Healthcare) before flow cytometry analysis, ex vivo stimulation or TCR avidity assay.
TILs, LILs or splenocytes were numerated and 1×10^5 or 2×10^6 cells were plated per condition, respectively. Cells were incubated with HPV-CD4, HPV-CD8, OVA-CD8 or OVA-CD4 epitope peptide, with PMA/ionomycin as a positive control or without any stimulant as a negative control, in presence of Golgi stop (BD biosciences) and anti-CD107a for 6 hours. […]
The following antibodies were used: CD45 (30-F11), CD11b (M1/70), KLRG1 (2F1), CD103 (M290), NKg2a (20d5), Ly6C (AL-21), Ly6G (1A8), PD-L1 (MIH5), I-A/I-E (M5/114), CD11c (HL3), PDCA1 (927), CD64 (X54-5/7.1), B220 (RA3-6B2), CD24 (M1/69), CD4 (GK1.5), CD25 (3C7), CD3 (500A2), NKp46 (29A1.4), TNF-α (MP6-XT22), IFN-γ (XMG1.2), H2-Kb (AF6-88.5) and H2-db (28-14-8) were from BD Biosciences; Tim3 (RMT3-23), PD-1 (29F.1A12), CD38 (90), Gr-1 (RB6-8C5), CD206 (C068C2), CD68 (FA-11) were from BioLegend; Ki67 (solA15), FoxP3 (FJK-16s), T-bet (4B10), GATA-3 (TWAJ) and RORγt (AFKJS-9) were from ThermoFisher Scientific; Granzyme B (REA226) was from Miltenyi; CD8 (KT15) was from MBL. […] Cells were analyzed using an Attune NxT flow cytometer (ThermoFisher Scientific) Kaluza (Beckman Coulter) software. […]

TC-1 tumor [3] = experiment: TC-1 tumor model: antigen-specific CD8 T cell responses; assay type: in vivo, C57BL/6 mice
Procedure: as §1
(§5) TC-1 tumors were harvested at day 20 post implantation and tumor-infiltrating leucocytes (TIL) were purified using Miltenyi tumor dissociation kit following manufacturer instruction. Briefly, tumor tissues were cut into small pieces, and resuspended in DMEM medium containing tumor dissociating enzymes (Miltenyi). Tumors were digested on a Gentle MACS with heating system (Miltenyi) using solid tumor program. Enzymatic digestion was stopped by adding cold PBS 0.5% BSA solution and keeping cells on ice. Digested tumors were passed through a 70 μm to eliminate remaining undigested tissue. CD45+ cells were purified using CD45 TIL microbeads (Miltenyi) following manufacturer protocol. Purified CD45+ cells were used for flow cytometry staining or ex vivo T cells stimulation.
as §4
TILs, LILs or splenocytes were numerated and 1×10^5 or 2×10^6 cells were plated per condition, respectively. […]
The following antibodies were used: CD45 (30-F11), CD11b (M1/70), KLRG1 (2F1), CD103 (M290), NKg2a (20d5), Ly6C (AL-21), Ly6G (1A8), PD-L1 (MIH5), I-A/I-E (M5/114), CD11c (HL3), PDCA1 (927), CD64 (X54-5/7.1), B220 (RA3-6B2), CD24 (M1/69), CD4 (GK1.5), CD25 (3C7), CD3 (500A2), NKp46 (29A1.4), TNF-α (MP6-XT22), IFN-γ (XMG1.2), H2-Kb (AF6-88.5) and H2-db (28-14-8) were from BD Biosciences; Tim3 (RMT3-23), PD-1 (29F.1A12), CD38 (90), Gr-1 (RB6-8C5), CD206 (C068C2), CD68 (FA-11) were from BioLegend; Ki67 (solA15), FoxP3 (FJK-16s), T-bet (4B10), GATA-3 (TWAJ) and RORγt (AFKJS-9) were from ThermoFisher Scientific; Granzyme B (REA226) was from Miltenyi; CD8 (KT15) was from MBL. […] Cells were analyzed using an Attune NxT flow cytometer (ThermoFisher Scientific) Kaluza (Beckman Coulter) software.
To this end, 10^5 TC-1 tumor cells were implanted on the back of C57BL/6 mice. […] One week after the last treatment, mice were sacrificed, tumor harvested, and CD8 T cells presence and phenotype was analyzed by FACS staining.

TC-1 tumor [4] = experiment: TC-1 tumor model: intra-tumoral CD4 T cell responses; assay type: in vivo, C57BL/6 mice
Procedure: as §1
as §5, with “Purified CD45+ cells were used for flow cytometry staining or ex vivo T cells stimulation.” left out
In view thereof, intra-tumoral CD4 T cells were monitored next. […]

TC-1 tumor [5] = experiment: TC-1 tumor model: tumor microenvironment composition by FACS; assay type: in vivo, C57BL/6 mice; settings: systemic administration
Procedure: as §1
as §5, with “Purified CD45+ cells were used for flow cytometry staining or ex vivo T cells stimulation.” left out

TC-1 tumor [6] = experiment: TC-1 tumor model: intra-tumoral expression of PD-L1, MHC-I and MHC-II; assay type: in vivo, C57BL/6 mice
Procedure: as §1
TC-1 tumors were harvested at day 20 post implantation and tumor-infiltrating leucocytes (TIL) were purified using Miltenyi tumor dissociation kit following manufacturer instruction. Briefly, tumor tissues were cut into small pieces, and resuspended in DMEM medium containing tumor dissociating enzymes (Miltenyi). Tumors were digested on a Gentle MACS with heating system (Miltenyi) using solid tumor program. […]
Furthermore, down-regulation of MHC-I expression on tumor cells is one of the main mechanism of immune evasion. Therefore, the intra-tumoral expression of PD-L1 and MHC-I as well as MHC-II was also monitored in the TC-1 tumor model as described above.

TC-1 tumor [7] = experiment: TC-1 tumor model: tumor growth and survival (STINGa); assay type: in vivo, C57BL/6 mice; settings: TC-1 model, treated twice at one-week interval
Procedure: as §1, §2, §3
10^5 TC-1 cells were implanted on the back of C57BL/6 mice. When tumors were visible, mice were treated twice at one-week interval as described above in therapeutic settings of the TC-1 tumor model with (i) the complex comprising a cell penetrating peptide, at least one antigen or antigenic epitope, and a TLR peptide agonist (Z13Mad25Anaxa); (ii) the STING agonist; or (iii) a combination of both.

B16-OVA tumor = experiment: B16-OVA pulmonary metastases tumor model; assay type: in vivo, C57BL/6 mice; settings: B16-OVA i.v., day 20
Procedure: as §1
B16-OVA tumor bearing mice were sacrificed at day 20, lungs were perfused with a saline solution and the number of lung metastasis was counted.
B16-OVA tumor bearing mice were perfused with a saline solution to eliminate blood from the lungs before their collection. Lung-infiltrating leucocytes (LILs) were purified using mouse tumor dissociation kit from Miltenyi, following manufacturer instruction. […]
Briefly, 10^5 B16-OVA cells were injected intravenously into C57BL/6 mice. […] At day 20 (10 days after the last vaccination), lungs were perfused to eliminate blood, the number of pulmonary metastasis was counted, and lung infiltrating lymphocytes (LILs) were analyzed.

MC38-CEA tumor = MC38-CEA tumor model: CEA-specific CD8 T cells by multimer staining; assay type: in vivo, C57BL/6J mice; settings: multimer staining one week after second vaccination, MC38-CEA tumor-bearing mice
Procedure: Alternatively, female C57BL/6J mice were implanted with 5×10^5 MC38-CEA tumor cells subcutaneously on the back of the mouse and vaccinated twice at the base of the tail (at day 6 and 13 post tumor implantation) by s.c. injection of 10 nmoles of vaccine, 25 μg of STINGa (ADU-S100) or a combination of the two.
Female C57BL/6J mice were implanted with 5*10^5 MC38-CEA tumor cells subcutaneously on the back of the mouse. At day 6 and day 13 post tumor implantation, mice were vaccinated with 10 nmol of ATP128, 25 μg of a STING agonist (ADU-S100) or a combination of the two. Both the ATP128 vaccine and the STING agonist were injected subcutaneously at the base of the tail. One week after the second vaccination, mouse blood was collected from the tail vein and the frequency and the total number of CEA-specific CD8 T cells was analyzed by flow cytometry using a custom designed multimer.

Nc1ncnc2c1ncn2[C@@H]1O[C@@H]2COP(=O)(S)O[C@@H]3[C@H](O)[C@@H](COP(=O)(S)O[C@H]2[C@H]1F)O[C@H]3n1cnc2c(=O)[nH]ncc21 (stereo partly drawn) [STINGa 2]
Survival (TC-1 tumor [1]): only provided a slight improvement
Tumor growth (TC-1 tumor [1]): only provided a slight improvement

Nc1ncnc2c1ncn2[C@@H]1O[C@@H]2CO[P@@](=O)([S][Na])O[C@@H]3[C@H](O)[C@@H](CO[P@@](=O)([S][Na])O[C@H]2[C@H]1O)O[C@H]3n1cnc2c(N)ncnc21 [STINGa, reference compound]
Serum IFN-α level (systemic type I interferon response) (IFN-α): high IFN-α serum levels peaking 4 hours post injection and decreasing already 24 hours later
Proportion of splenic CD8 T cells [2]: higher proportion of splenic CD8 T cells
Cytokine secretion by CD8 T cells after ex vivo PMA/Ionomycin restimulation ([2]; splenocytes): increased cytokine secretion
HPV-specific proportion of tumor-infiltrating CD8 T cells (in words) (TC-1 tumor [3]; TC-1 tumor): did not modulate
Expression of exhaustion markers PD-1 and Tim-3 by tumor-infiltrating CD8 T cells (TC-1 tumor [3]; TC-1 tumor, flow cytometry): expressed only PD-1 or no exhaustion marker at all
CD8 T cells tumor infiltration (TC-1 tumor [3]; TC-1 tumor, one week after last treatment): did not modulate
Circulating HPV-specific CD8 T cells (frequency and number) (TC-1 tumor [3]; blood, one week after last treatment, TC-1 tumor-bearing mice): no effect
Tumor infiltration by CD4 T cells (TC-1 tumor [4]): no effect on intra-tumoral CD4 T cells recruitment
Composition of TME (TC-1 tumor [5]): does not affect the composition of TME
Intra-tumoral immunogenicity (modulation of TME) (TC-1 tumor [6]): no effect was observed
Tumor development / tumor growth (TC-1 tumor [7]): only a small effect on tumor growth
Number of metastatic nodules per lung (B16-OVA tumor): no effect

ATP128: Vaccine construct (SEQ ID NO: 54) containing CEA, survivin and ASCL2 epitopes, cell penetrating peptide and TLR peptide agonist
CEA-specific CD8 T cell response (MC38-CEA tumor): elicits CEA-specific CD8 T cells
